Data from patent US20240343694A1, “PYRIMIDINE DERIVATIVE, METHOD FOR PREPARING SAME, AND PHARMACEUTICAL COMPOSITION FOR PREVENTING OR TREATING CANCER COMPRISING SAME AS ACTIVE INGREDIENT” (KOREA RESERARCH INSTITUTE OF CHEMICAL TECHNOLOGY, priority 2021, published 2024).

Assays:
EGFR del19 = EGFR del19 (Homo sapiens (Human), UniProt P00533, DEL746-750); assay: HTRF inhibitory activity against EGFR mutant enzyme (EGFR del19); assay type: biochemical; details: recombinant enzyme, 37° C. for 2 hours
Procedure: (§1) The activity of the compounds of the present invention against EGFR mutant enzymes was measured using the HTRF system purchased from Cisbio as follows. For an EGFR mutant enzyme, the EGFR del19 enzyme was a recombinant protein purchased from Carna Biosciences, and the EGFR A763_Y764insFHEA enzyme was a recombinant protein purchased from SignalChem, respectively.
(§2) The composition of the assay buffer used for activity measurement was 50 mM tris-HCl pH 7.5, 100 mM NaCl, 7.5 mM MgCl2, 3 mM KCl, 0.01% tween 20, 0.1% BSA, and 1 mM DTT. An enzymatic reaction was performed using a peptide substrate labeled with ATP at a concentration of […] and biotin at a concentration of […]. The analysis of the inhibitory effect of the compounds on EGFR activity was performed according to the following method. • Component 1:4 μL of EGFR mutant enzyme • Component 2:2 μL of compound solution • Component 3:4 μL of ATP and a biotin labeled peptide
(§3) The enzyme reaction begins by first mixing component 1 and component 2 and then adding component 3 thereto. After the reaction at 37° C. for 2 hours, […] of a measurement solution consisting of streptavidin-XL665 and a europium-labeled anti-phosphotyrosine antibody purchased from Cisbio was added to the enzyme reaction solution and reacted at room temperature for 1 hour. Finally, the ratio of fluorescence values at 615 nm and 665 nm was measured using Perkin-Elmer's Envision instrument to calculate enzyme activity and confirm the inhibitory ability of the compounds. The measured values at 7 compound concentrations were analyzed using the Prism program (version 5.01, Graphpad Software, Inc.), and the IC50 (μM) values, which are measures of the compounds' inhibitory activity, were calculated.

[1] = system: Ba/F3 HER2 A775_G776insYVMA; assay: Growth inhibition of Ba/F3 HER2 mutant cells (CellTiter-Glo); assay type: cell-based; details: Mus musculus, BaF3, 72 hours
Procedure: The activity of the compounds of the present invention against Ba/F3 HER2 A775_G776insYVMA and Ba/F3 HER2 G776delinsVC mutant cell lines was measured using the CellTiter-Glo system purchased from Promega as follows. CellTiter-Glo assay is a method to measure cell viability by monitoring ATP present in cells. Ba/F3 HER2 A775_G776insYVMA and Ba/F3 HER2 G776delinsVC mutant cell lines were purchased from Crown Biosciences. Ba/F3 HER2 A775_G776insYVMA and Ba/F3 HER2 G776delinsVC mutant cell lines were cultured in RPMI containing 10% FBS and 1% penicillin-streptomycin with 1 μg/mL of puromycin in a CO2 incubator at 37° C.
The analysis of the ability of the compounds to inhibit the growth of HER2 mutant cells was performed according to the following method. 1,000 cells/100 μL were seeded in a 96-well cell culture plate, and 24 hours thereafter, the compounds represented by Formula 1 were treated with 0 μM, 0.01 μM, 0.03 μM, 0.1 μM, 0.3 μM, 1 μM, 3 μM, and 10 μM. After reacting for 72 hours, the plate treated with the compounds were left at room temperature for 30 minutes, 100 μL of a reagent was added thereto, and then shaken at room temperature for 10 minutes. Finally, using equipment, the ratio of […] was measured to confirm the cell growth inhibition ability of the compounds. The measured values at 8 compound concentrations were analyzed using the Prism program (version 5.01, Graphpad Software, Inc.), and the IC50 (μM) values, which are measures of the compounds' inhibitory ability, were calculated.

EGFR A763_Y764insFHEA = EGFR A763_Y764insFHEA (Homo sapiens (Human), UniProt P00533, INS763FHEA); assay: HTRF inhibitory activity against EGFR mutant enzyme (EGFR A763_Y764insFHEA); assay type: biochemical; details: recombinant enzyme, 37° C. for 2 hours
Procedure: as §1, §2, §3

HER2 A775_G776insYVMA = HER2 A775_G776insYVMA (Homo sapiens (Human), UniProt P04626, INS775YVMA); assay: HTRF inhibitory activity against HER2 mutant enzyme; assay type: biochemical; details: recombinant enzyme, 37° C. for 2 hours
Procedure: The activity of the compounds of the present invention against HER mutant enzymes was measured using the HTRF system purchased by Cisbio as follows. As a HER2 mutant enzyme, the HER2 A775_G776insYVMA mutant enzyme was used by purchasing a recombinant protein provided by Carna Biosciences.
as §2, with “mM DTT. In addition thereto, the enzymatic reaction” for “mM DTT. An enzymatic reaction”, “of the activity inhibitory effect” for “of the inhibitory effect”, “compounds on HER2 A775_G776insYVMA mutation was performed” for “compounds on EGFR activity was performed”, “μL of HER2 A775_G776insYVMA mutant enzyme” for “μL of EGFR mutant enzyme”
as §3, with “Finally, the ratio of fluorescence values at 615 nm and 665 nm was measured using Perkin-Elmer's Envision instrument to calculate enzyme activity and confirm the inhibitory ability of the compounds.” left out, “ability,” for “activity,”

EGFR del19, sequence (P00533 other isoform, or with tags, fused parts or gaps del 1-668/del 746-750 limits assumed): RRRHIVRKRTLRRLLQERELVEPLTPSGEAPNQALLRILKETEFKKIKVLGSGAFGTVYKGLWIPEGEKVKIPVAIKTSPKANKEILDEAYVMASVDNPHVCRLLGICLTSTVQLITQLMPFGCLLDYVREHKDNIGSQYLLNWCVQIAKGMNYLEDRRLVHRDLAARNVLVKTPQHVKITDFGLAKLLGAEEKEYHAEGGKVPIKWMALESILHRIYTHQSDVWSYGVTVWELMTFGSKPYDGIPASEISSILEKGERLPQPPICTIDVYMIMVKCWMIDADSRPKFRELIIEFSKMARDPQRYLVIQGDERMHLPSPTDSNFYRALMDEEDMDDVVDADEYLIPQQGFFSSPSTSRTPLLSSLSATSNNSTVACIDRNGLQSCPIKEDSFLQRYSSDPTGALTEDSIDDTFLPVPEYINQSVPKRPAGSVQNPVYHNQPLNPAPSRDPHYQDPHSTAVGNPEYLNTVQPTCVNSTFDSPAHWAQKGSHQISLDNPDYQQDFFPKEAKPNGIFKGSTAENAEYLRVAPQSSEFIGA
HER2 A775_G776insYVMA, sequence (P04626 other isoform, or with tags, fused parts or gaps del 1-675/ins YVMA behind 775 limits assumed): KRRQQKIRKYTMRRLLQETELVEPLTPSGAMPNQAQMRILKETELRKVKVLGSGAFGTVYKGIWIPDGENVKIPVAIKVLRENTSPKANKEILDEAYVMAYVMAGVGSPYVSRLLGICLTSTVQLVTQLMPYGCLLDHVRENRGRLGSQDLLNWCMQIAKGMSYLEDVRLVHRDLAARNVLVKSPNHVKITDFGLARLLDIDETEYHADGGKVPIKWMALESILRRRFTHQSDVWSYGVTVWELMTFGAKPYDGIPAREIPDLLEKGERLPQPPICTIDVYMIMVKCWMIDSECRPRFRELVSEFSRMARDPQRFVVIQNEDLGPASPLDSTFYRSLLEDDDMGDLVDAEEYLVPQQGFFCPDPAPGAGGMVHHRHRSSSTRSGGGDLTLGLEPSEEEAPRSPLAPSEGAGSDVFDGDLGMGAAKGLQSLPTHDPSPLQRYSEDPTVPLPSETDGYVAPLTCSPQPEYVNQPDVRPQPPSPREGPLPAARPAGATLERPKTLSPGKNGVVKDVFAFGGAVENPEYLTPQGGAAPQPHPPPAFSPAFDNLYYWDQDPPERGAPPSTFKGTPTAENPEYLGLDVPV
EGFR A763_Y764insFHEA, sequence (P00533 other isoform, or with tags, fused parts or gaps del 1-694/ins FHEA behind 763 limits assumed): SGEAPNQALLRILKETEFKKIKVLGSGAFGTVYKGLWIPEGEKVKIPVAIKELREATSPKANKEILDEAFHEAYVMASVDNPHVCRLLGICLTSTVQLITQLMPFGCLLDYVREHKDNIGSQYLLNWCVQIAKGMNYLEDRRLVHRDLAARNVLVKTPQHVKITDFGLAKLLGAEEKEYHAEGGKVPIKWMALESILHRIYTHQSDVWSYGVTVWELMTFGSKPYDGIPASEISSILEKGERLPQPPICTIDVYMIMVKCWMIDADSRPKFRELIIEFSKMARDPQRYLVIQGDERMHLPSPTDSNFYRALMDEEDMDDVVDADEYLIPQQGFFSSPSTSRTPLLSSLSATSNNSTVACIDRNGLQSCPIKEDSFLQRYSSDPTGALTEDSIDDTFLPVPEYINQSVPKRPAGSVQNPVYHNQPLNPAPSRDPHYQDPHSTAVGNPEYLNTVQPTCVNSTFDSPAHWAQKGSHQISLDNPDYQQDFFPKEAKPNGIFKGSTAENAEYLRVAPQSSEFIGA

Compound | IC50 (EGFR del19) [nM] | IC50 [1] [nM] | IC50 (EGFR A763_Y764insFHEA) [nM] | IC50 (HER2 A775_G776insYVMA) [nM]
C=CC(=O)Nc1cc(Nc2ncc(Cl)c(Nc3ccccc3NS(=O)(=O)CCC)n2)c(OC)cc1N(C)CCN(C)C [Example 1, N-(5-((5-chloro-4-((2-(propylsulfonamido)phenyl)amino)pyrimidin-2-yl)amino)-2-((2-(dimethylamino)ethyl)(methyl)amino)-4-methoxyphenyl)acrylamide] | < 1 | 30 to 50 | 4 | 140
C=CC(=O)Nc1cc(Nc2ncc(F)c(Nc3ccccc3NS(=O)(=O)CC)n2)c(OC)cc1N(C)CCN(C)C [Example 12, N-(2-((2-(dimethylamino)ethyl)(methyl)amino)-5-((4-((2-(ethylsulfonamido)phenyl)amino)-5-fluoropyrimidin-2-yl)amino)-4-methoxyphenyl)acrylamide] | < 1 | – | 4 | 69
C=CC(=O)Nc1cc(Nc2ncc(F)c(Nc3ccccc3NS(=O)(=O)c3ccc(C)cc3)n2)c(OC)cc1N(C)CCN(C)C [Example 15, N-(2-((2-(dimethylamino)ethyl)(methyl)amino)-5-((5-fluoro-4-((2-((4-methylphenyl)sulfonamido)phenyl)amino)pyrimidin-2-yl)amino)-4-methoxyphenyl)acrylamide] | 10 | – | 10 | 1200
C=CC(=O)Nc1cc(Nc2ncc(Cl)c(Nc3ccc4nccnc4c3N(C)S(C)(=O)=O)n2)c(OC)cc1N(C)CCN(C)C [Example 68, N-(5-((5-chloro-4-((5-(N-methylmethylsulfonamido)quinoxalin-6-yl)amino)pyrimidin-2-yl)amino)-2-((2-(dimethylamino)ethyl)(methyl)amino)-4-methoxyphenyl)acrylamide] | < 1 | – | < 1 | 6
C=CC(=O)Nc1cc(Nc2ncc(Cl)c(Nc3cccc4ccn(S(C)(=O)=O)c34)n2)c(OC)cc1N(C)CCN(C)C [Example 67, N-(5-((5-chloro-4-((1-(methylsulfonyl)-1H-indol-7-yl)amino)pyrimidin-2-yl)amino)-2-((2-(dimethylamino)ethyl)(methyl)amino)-4-methoxyphenyl)acrylamide] | < 1 | – | < 1 | 81
COc1cc(N2CCN(C)CC2)c(NC(=O)/C=C/CN(C)C)cc1Nc1ncc(Cl)c(Nc2ccccc2NS(C)(=O)=O)n1 [Example 27, (E)-N-(5-((5-chloro-4-((2-(methylsulfonamido)phenyl)amino)pyrimidin-2-yl)amino)-4-methoxy-2-(4-methylpiperazin-1-yl)phenyl)-4-(dimethylamino)buten-2-amide] | 3 | – | 9 | 30
C=CC(=O)Nc1cc(Nc2ncc(C)c(Nc3ccccc3NS(=O)(=O)c3ccccc3)n2)c(OC)cc1N(C)CCN(C)C [Example 20, N-(2-((2-(dimethylamino)ethyl)(methyl)amino)-4-methoxy-5-((5-methyl-4-((2-(phenylsulfonamido)phenyl)amino)pyrimidin-2-yl)amino)phenyl)acrylamide] | 2 | – | 6 | 370
C=CC(=O)Nc1cc(Nc2ncc(C(=O)OC)c(Nc3cccc4c3N(S(C)(=O)=O)CCC4)n2)c(OC)cc1N(C)CCN(C)C [Example 51, methyl 2-((5-acrylamido-4-((2-(dimethylamino)ethyl)(methyl)amino)-2-methoxyphenyl)amino)-4-((1-(methylsulfonyl)-1,2,3,4-tetrahydroquinolin-8-yl)amino)pyrimidin-5-carboxylate] | < 1 | – | < 1 | 30
C=CC(=O)Nc1cc(Nc2ncc(Cl)c(Nc3cccc4c3N(S(C)(=O)=O)CC4)n2)c(OC)cc1N(C)CCN1CCN(C)CC1 [Example 73, N-(5-((5-chloro-4-((1-(methylsulfonyl)indolin-7-yl)amino)pyrimidin-2-yl)amino)-4-methoxy-2-(methyl(2-(4-methylpiperazin-1-yl)ethyl)amino)phenyl)acrylamide] | < 1 | – | < 1 | 5
C=CC(=O)Nc1cc(Nc2nccc(Nc3ccccc3NS(=O)(=O)c3ccc(C)cc3)n2)c(OC)cc1N(C)CCN(C)C [Example 9, N-(2-((2-(dimethylamino)ethyl)(methyl)amino)-4-methoxy-5-((4-((2-((4-methylphenyl)sulfonamido)phenyl)amino)pyrimidin-2-yl)amino)phenyl)acrylamide] | 20 | – | 90 | 2400

Results, then the compound that gave them:

IC50 (EGFR del19) [nM] | IC50 [1] [nM] | IC50 (EGFR A763_Y764insFHEA) [nM] | IC50 (HER2 A775_G776insYVMA) [nM] | Compound
< 1 | – | < 1 | 2 | C=CC(=O)Nc1cc(Nc2ncc(Cl)c(Nc3cccc4c3N(S(C)(=O)=O)CC4)n2)c(OC)cc1OCCN1CCOCC1 [Example 77, N-(5-((5-chloro-4-((1-(methylsulfonyl)indolin-7-yl)amino)pyrimidin-2-yl)amino)-4-methoxy-2-(2-morpholinoethoxy)phenyl)acrylamide]
< 1 | – | 10 | 440 | C=CC(=O)Nc1cc(Nc2nccc(Nc3ccccc3NS(=O)(=O)CC)n2)c(OC)cc1N(C)CCN(C)C [Example 10, N-(2-((2-(dimethylamino)ethyl)(methyl)amino)-5-((4-((2-(ethylsulfonamido)phenyl)amino)pyrimidin-2-yl)amino)-4-methoxyphenyl)acrylamide]
< 1 | – | 4 | 33 | C=CC(=O)Nc1cc(Nc2ncc(Cl)c(Nc3ccccc3N3CCCS3(=O)=O)n2)c(OC)cc1N(C)CCN(C)C [Example 70, N-(5-((5-chloro-4-((2-(1,1-dioxidoisothiazolidin-2-yl)phenyl)amino)pyrimidin-2-yl)amino)-2-((2-(dimethylamino)ethyl)(methyl)amino)-4-methoxyphenyl)acrylamide]
< 1 | – | < 1 | 4 | C=CC(=O)Nc1cc(Nc2ncc(C(=O)OC(C)C)c(Nc3cccc4c3N(S(C)(=O)=O)CCC4)n2)c(OC)cc1N(C)CCN(C)C [Example 52, isopropyl 2-((5-acrylamido-4-((2-(dimethylamino)ethyl)(methyl)amino)-2-methoxyphenyl)amino)-4-((1-(methylsulfonyl)-1,2,3,4-tetrahydroquinolin-8-yl)amino)pyrimidin-5-carboxylate]
< 1 | – | 3 | 30 | C=CC(=O)Nc1cc(Nc2ncc(Cl)c(Nc3ccccc3NS(C)(=O)=O)n2)c(OC)cc1N(C)CCN1CCCCC1 [Example 23, N-(5-((5-chloro-4-((2-(methylsulfonamido)phenyl)amino)pyrimidin-2-yl)amino)-4-methoxy-2-(methyl(2-(piperidin-1-yl)ethyl)amino)phenyl)acrylamide]
